Assay [1] has as its target T1, full-length FXR (Homo sapiens, UniProt Q96RI1).
T1 construct: The cells were co-transfected with plasmids encoding full-length FXR and the cognate luciferase reporter EcRE-Luc; expressed in transfected cells; host or cells: COS-7
T1 sequence (Q96RI1 1-486): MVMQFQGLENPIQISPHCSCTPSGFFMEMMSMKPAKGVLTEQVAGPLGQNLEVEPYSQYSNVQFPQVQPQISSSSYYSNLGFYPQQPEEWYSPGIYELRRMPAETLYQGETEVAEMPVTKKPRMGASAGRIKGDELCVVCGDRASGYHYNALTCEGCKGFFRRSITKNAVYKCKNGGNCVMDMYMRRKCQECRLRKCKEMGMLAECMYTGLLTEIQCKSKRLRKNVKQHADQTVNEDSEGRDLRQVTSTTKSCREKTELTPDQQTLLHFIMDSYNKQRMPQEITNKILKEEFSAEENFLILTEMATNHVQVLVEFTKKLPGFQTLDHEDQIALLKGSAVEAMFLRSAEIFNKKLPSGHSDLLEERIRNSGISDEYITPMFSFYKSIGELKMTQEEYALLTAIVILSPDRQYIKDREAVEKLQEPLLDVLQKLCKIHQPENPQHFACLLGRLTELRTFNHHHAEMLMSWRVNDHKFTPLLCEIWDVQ
The experiment in a line: Cell-based FXR transactivation, EcRE luciferase reporter in COS-7 cells. The following applies: Table 2; for Cell-based FXR transactivation Fold changes by 5 μM compound: positive: induction, minus: repression; for EC50: EcRE luciferase reporter. The method, then: COS-7 cells were cotransfected with plasmids encoding full length FXR.
For transient transfection assay, COS-7 cells were maintained in DMEM containing 10% fetal bovine serum and were transiently transfected using Lipofectamine 2000 (Invitrogen). Before 24 h of transfection, 24-well plates were plated. The cells were co-transfected with plasmids encoding full-length FXR and the cognate luciferase reporter EcRE-Luc. Ligands were added 5 hours after transfection. Cells were harvested 24 hours later for the luciferase assays according to the manufacturer's instructions (Dual-Luciferase® Reporter Assay System, Promega). Luciferase activities were normalized to renilla activity co-transfected as an internal control.

Assay [2] relates to human colorectal adenocarcinoma HCT15 cells. The experiment in a line: MTT cell viability assay, HCT15. Format: cell-based. The following applies: 48 h, read-out: Cell viability as a percentage of the cells treated with DMSO, HCT15; for viability at 20 µM: HCT-15, 20 uM; for viability at 40 µM: HCT-15, 40 uM. The text has this:
(§1) The MTT assay is a colorimetric assay for assessing cell metabolic activity. It is widely used in high-throughput screening of antitumor drugs due to its high sensitivity and economical features. In this example, MTT was used to detect the inhibitory effects of compounds on various cancer cell lines. Cancer cells including human colorectal adenocarcinoma HCT15 cells, RA-resistant human colon cancer HCT116 cells, human cervical carcinoma Hela cells, human hepatoma HepG2 cells and human breast cancer MCF7 cells were cultured in DMEM medium containing 10% fetal bovine serum. 20 uM or 40 uM of compounds were administered to treat cells, cell viability is detected by MTT assay and expressed as a percentage of the cells treated with DMSO (Table 4).
In general terms: Tetrazolium assays rely on reduction of a dye to a coloured formazan, in cell work by metabolically active cells.

Assay [3] has as its system RA-resistant human colon cancer HCT116 cells. In words: MTT cell viability assay, HCT116. Format: cell-based. The settings on record: 48 h, read-out: Cell viability as a percentage of the cells treated with DMSO, HCT116; for viability at 20 µM: HCT-116, 20 uM; for viability at 40 µM: HCT-116, 40 uM.
Source text: as §1

For assay [4], the system named is human hepatoma HepG2 cells. In words: MTT cell viability assay, HepG2. Format: cell-based. The following applies: 48 h, read-out: Cell viability as a percentage of the cells treated with DMSO, HepG2.
Source text: as §1

The test system of assay [5] is human cervical carcinoma Hela cells. The experiment in a line: MTT cell viability assay, Hela. Format: cell-based. The settings on record: 48 h, read-out: Cell viability as a percentage of the cells treated with DMSO, Hela.
Source text: as §1

In assay [6] the test system is human breast cancer MCF7 cells. The experiment in a line: MTT cell viability assay, MCF-7. In kind it is cell-based. The settings on record: 48 h, read-out: Cell viability as a percentage of the cells treated with DMSO, MCF-7.
Source text: as §1

Assay [7] deals with inflammatory cytokines in tissues of db/db mice. The experiment in a line: Inflammatory cytokine mRNA levels in tissues of high-fat diet fed db/db mice (RT-PCR). The settings on record: 5 mg/kg. Format: in vivo, mouse. An excerpt: In this example, we detected the levels of various inflammatory cytokines including iNOS, IFNγ, TGFβ, TNFα, COX2, IL-1β, IL-6, SAA1, MIP-1α and CD36 in liver, kidney, white adipose tissue (WAT) in various mice models, including wild type mice treated with APAP in example 4, high-fat diet fed diabetic and obesity db/db and KK-Ay mice in example 5, high-fat diet fed wild-type mice in Example 5, as well as in primary hepatocytes with LPS induced inflammation, using RT-PCR.

In assay [8] the target is T2, FXR ligand binding domain (LBD) (Homo sapiens, UniProt Q96RI1).
T2 construct: made in house
T2 sequence (Q96RI1 262-486 limits assumed): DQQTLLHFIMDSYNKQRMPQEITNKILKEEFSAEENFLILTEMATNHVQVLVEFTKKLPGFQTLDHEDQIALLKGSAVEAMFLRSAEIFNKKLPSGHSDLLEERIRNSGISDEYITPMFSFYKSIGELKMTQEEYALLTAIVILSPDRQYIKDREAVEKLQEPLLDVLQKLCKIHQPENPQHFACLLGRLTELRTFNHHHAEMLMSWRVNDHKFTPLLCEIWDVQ
In words: AlphaScreen assay: FXR LBD recruitment of coregulator peptide motifs (SRC2-3, SRC1-2). In kind it is biochemical. The following applies: Table 2. On the procedure: In search of novel ligands for FXR, we used FXR ligand binding domain (LBD) as a bait to screen chemical libraries based on AlphaScreen biochemical assay, which determines the efficacy of small molecules in influencing binding affinity of FXR with coregulator peptides (see e.g., Jin et al., (2013) Nature communications 4, 1937).
The binding of the cofactor peptide motifs to FXR ligand binding domain (LBD) in response to ligands was determined by AlphaScreen assays using a hexahistidine detection kit from Perkins-Elmer. The FXR LBD protein was purified as described previously (see e.g., Jin et al., (2013) Nature communications 4, 1937). The experiments were conducted with approximately 20-40 nM receptor LBD and 20 nM biotinylated cofactor peptides in the presence of 5 μg/ml donor and acceptor beads in a buffer containing 50 mM MOPS, 50 mM NaF, 0.05 mM CHAPS, and 0.1 mg/ml bovine serum albumin, all adjusted to a pH of 7.4.

Assay [9] relates to db/db mice. In words: Serum/blood metabolic parameters in high-fat diet fed db/db mice. Format: in vivo, mouse. The following applies: 10 mg/kg, treat for 10 days, vehicle 527 ± 63. An excerpt:
KK-Ay mice (KK/Upj-Ay/J) are animal models with moderate obese and diabetes with insulin resistance. KK-Ay mice develop hyperglycemia, hyperinsulinemia, glucose intolerance and obesity as well as fat accumulation in liver by eight weeks of age. Pancreatic islets are hypertrophied and the β-cells are degranulated. db/db mice (BKS.Cg-Dockr+/+ Lepr^db/Jnju) are animal models of type II diabetes. They have the phenotype of insulin resistance. These model mice were used to detect the functions of our compounds on metabolic diseases.
8-10 weeks age mice were maintained as example 4, and fed with high-fat diet (Research Diets, D12492). Mice were i.p. injected with compounds once daily for 7, 10, 11 or 14 days as indicated in each table. After the last compounds injection, mice were fasted for 6 hours with free access to water, and then sacrificed. Part of each liver was fixed in 4% paraformaldehyde for H&E staining, and other liver tissues were stored in liquid nitrogen for enzyme activity measurement and gene expression analysis by RT-PCR. The serums were collected to measure metabolic parameters, including serum glucose, insulin, cholesterol, free fatty acid (FFA) and triglyceride levels. Serum glucose was analyzed using glucose oxidase method (Applygen, Beijing, China). The blood glucose in Table 11 was measured with Berenger blood glucose test strips (B/BRAUN, German) from blood by cutting mice tail after the 6th injection and following fast for 16 hours. Serum cholesterol and FFA were analyzed using Cholesterol Assay Kit and FFA Assay Kit (Bioassay Systems, USA; Nanjing Jiancheng Bioengineering Institute, China; FFA ELISA, R&D, USA), respectively. Serum triglyceride was analyzed using Triglyceride Assay Kit (Bioassay Systems, USA; WAKO Chemicals Inc., Japan; Applygen, Beijing, China). Liver triglyceride was analyzed using Tissue triglyceride assay kit (Applygen, Beijing, China). Serum insulin levels were measured by the Ultra Sensitive Mouse Insulin ELISA Kit (Crystal Chem. Inc., USA). RNA was isolated using Tissue RNA kit (Omega Bio-Tek, GA). The first strand cDNA were obtained by TAKARA reverse transcription kit. Real-time quantitative PCR were performed on a CFX96™ Real-Time PCR Detection System (Bio-Rad) using SYBR Premix Ex Taq™ (TAKARA). Relative mRNA expression levels were normalized to actin levels. […]

Assay [10] relates to db/db mice. In words: Hepatic triglyceride, liver histology, serum ALT and ALP in high-fat diet fed db/db mice. Format: in vivo, mouse. The settings on record: 10 mg/kg for 10 days. On the procedure: Liver tissues fixed in 4% paraformaldehyde in example 5 were performed for H&E staining by standard procedures. Liver tissues fixed in 4% paraformaldehyde were embedded in optimum cutting temperature compound (OCT), and cryosectioned. Frozen liver sections were stained with 0.3% oil red O according to standard procedures.
The triglyceride levels in liver tissues from mice treated with compounds were analyzed using Tissue triglyceride assay kit (Applygen, Beijing, China).
Alkaline Phosphatase (ALP) is a marker of cholestasis. Cholestasis can be suspected when there is an elevation of ALP enzymes. In fact, greater than 90% of patients with bile stasis will have an elevated alkaline phosphatase. […] The aminotransferase is used to evaluate the presence of hepatitis and may be elevated in cholestasis or with common bile duct obstruction. In this example, 8-10 week age db/db mice were fed with high-fat diet and treated with 10 mg/kg of compounds once daily for 10 days as in Example 5. The activities of serum ALP and ALT were analyzed using ALP kit and ALT kit, respectively (Nanjing Jiancheng Engineering Institute, China).

The text below walks through data of patent US20180116993A1, “MODULATORS OF FARNESOID X RECEPTOR AND METHODS FOR THE USE THEREOF” (XIAMEN UNIVERSITY, priority 2015, published 2018).

Read-outs that look alike come from different tables or passages of the source. Marks after values point to notes of the source that are not given here.

In general, EC50 refers to the midpoint of the concentration-response curve. What is called viability is a per cent measure of how many cells are alive, often set against a control.

`Cc1cc(C(=O)OC2CC3CCC2(C)C3(C)C)ccc1[N+](=O)[O-]` (centres unmarked) [XD-15, 1,7,7-trimethyl-bicyclo[2.2.1]-heptan-2-yl 3-methyl-4-nitro-benzoate]: the “Cell-based FXR transactivation Fold changes by 5 μM compound” value in assay [1] is recorded as 3. The molecule also displayed an EC50 in assay [1] of 1000 to 10000 nM. Also, the viability at 20 µM is 100 ± 2% in assay [2]; 59 ± 3% in assay [3]; 79% in assay [4]; 89 ± 6% in [5]; 81 ± 4% in [6]. Also, the viability at 40 µM was 62 ± 3% in assay [2]; 40 ± 3% in assay [3]; 72 ± 3% in assay [4]; 70 ± 3% in assay [5]; 70% in [6]. Moreover, the “mRNA level of iNOS (fold), Liver tissue” value in [7] (vehicle 1.06 ± 0.14) was 0.47 ± 0.21^a fold. Further, the “mRNA level of iNOS (fold), Colon tissue” value in assay [7] (vehicle 1.12 ± 0.23) is given as 0.41 ± 0.16^a fold.

For the molecule `O=C(OC1CCC2CCCCC2C1)c1ccc(F)cc1` (centres unmarked) [XD-33, decahydro-naphthalen-2-yl 4-fluorobenzoate], the EC50 in [8] (SRC1-2 peptide, read-out: EC50 (μM) of FXR binding by AlphaScreen assay recruit SRC1-2) is less than 1 µM; in assay [8] (SRC2-3 peptide, read-out: EC50 (μM) of FXR binding by AlphaScreen assay recruit SRC2-3), less than 1 µM; in [1], 1000 to 10000 nM. Moreover, the “Cell-based FXR transactivation Fold changes by 5 μM compound” value in assay [1] is 2. Also, the viability at 20 µM worked out at 100 ± 2% in assay [2]; 97 ± 2% in assay [3]; 100 ± 2% in assay [4]; 97 ± 2% in assay [5]; 100 ± 2% in assay [6]. The viability at 40 µM in assay [2] stood at 100 ± 2%; in [3], 95 ± 2%; in assay [4], 95 ± 2%; in assay [5], 98 ± 2%; in [6], 95 ± 2%. In addition, the “Serum Glucose (mg/dl)” value in assay [9] is recorded as 400 ± 23^a mg/dl.

For `O=C(OC1CC2CCC1C2)c1ccc([N+](=O)[O-])cc1` (centres unmarked) [XD-25, bicyclo[2.2.1]-heptan-2-yl 4-nitrobenzoate], the “Cell-based FXR transactivation Fold changes by 5 μM compound” value in assay [1] was 1.5. The same molecule came in with an EC50 in [1] of less than 1000 nM. In addition, the viability at 20 µM turned out to be 100 ± 4% in [2]; 79 ± 2% in assay [3]; 100 ± 5% in assay [4]; 100 ± 2% in assay [5]; 100 ± 2% in assay [6]. In addition, the viability at 40 µM worked out at 89 ± 4% in [2]; 66 ± 5% in [3]; 90 ± 4% in assay [4]; 100 ± 2% in assay [5]; 97 ± 2% in [6]. The “Serum Glucose (mg/dl)” value in [9] is listed as 389 ± 47^a mg/dl. In assay [10] (vehicle 148 ± 14), the “Hepatic triglyceride (mM/g)” value was 116 ± 5 ^c mM/g. In addition, in assay [10] (vehicle 377 ± 48, Table 15), the “Serum ALT (U/L)” value was 124 ± 21 ^a U/L.
